Assay results: ChEMBL document CHEMBL1126185, “2-(N'-alkylidenehydrazino)adenosines: potent and selective coronary vasodilators” (J Med Chem, 1992)

Experiments:
[1] = molecular target: Adenosine A2 receptor (Cavia porcellus); assay: In vitro effect on coronary vasodilation in guinea pig heart.
[2] = molecular target: T1, Adenosine receptor A1 (Cavia porcellus, UniProt P47745); assay: In vitro prolonging of the stimulus-QRS interval in guinea pig heart.
T1 sequence (P47745 whole entry): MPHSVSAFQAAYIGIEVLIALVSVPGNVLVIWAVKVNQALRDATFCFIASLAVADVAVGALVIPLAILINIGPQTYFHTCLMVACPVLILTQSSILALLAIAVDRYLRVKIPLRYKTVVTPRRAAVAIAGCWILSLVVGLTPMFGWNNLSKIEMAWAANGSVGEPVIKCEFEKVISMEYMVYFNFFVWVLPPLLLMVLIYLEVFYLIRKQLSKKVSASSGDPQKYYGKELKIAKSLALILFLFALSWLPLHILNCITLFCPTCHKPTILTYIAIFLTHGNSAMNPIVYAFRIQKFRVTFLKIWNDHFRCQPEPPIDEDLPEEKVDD

SMILES	-Log EC50 [1]	EC50 [2]
Nc1nc(N/N=C/C2CCCCC2)nc2c1ncn2[C@@H]1O[C@H](CO)[C@@H](O)[C@H]1O [BINODENOSON]	–	3.55 µM
Nc1nc(N/N=C/C2=CCCCC2)nc2c1ncn2C1O[C@H](CO)[C@@H](O)[C@H]1O (stereo partly specified)	–	17.4 µM
CCC(CC)=NNc1nc(N)c2ncn(C3O[C@H](CO)[C@@H](O)[C@H]3O)c2n1 (stereo partly specified)	6.75	8.91 µM
Nc1nc(N/N=C/CC2CCCCC2)nc2c1ncn2C1O[C@H](CO)[C@@H](O)[C@H]1O (stereo partly specified)	9.16	9.77 µM
Nc1nc(N/N=C/C2=CC3CCC2C3)nc2c1ncn2C1O[C@H](CO)[C@@H](O)[C@H]1O (stereo partly specified)	8.48	20.4 µM
CCC/C=N/Nc1nc(N)c2ncn(C3O[C@H](CO)[C@@H](O)[C@H]3O)c2n1 (stereo partly specified)	8.54	11.5 µM
Nc1nc(NCCC2CCCCC2)nc2c1ncn2C1O[C@H](CO)[C@@H](O)[C@H]1O (stereo partly specified)	8.72	12.3 µM
CC1(C)C2CC=C(/C=N/Nc3nc(N)c4ncn(C5O[C@H](CO)[C@@H](O)[C@H]5O)c4n3)C1C2 (stereo partly specified)	–	25.7 µM
CCC/C(C)=N/Nc1nc(N)c2ncn(C3O[C@H](CO)[C@@H](O)[C@H]3O)c2n1 (stereo partly specified)	8.7	16.6 µM
CC(C)(C)/C=N/Nc1nc(N)c2ncn(C3O[C@H](CO)[C@@H](O)[C@H]3O)c2n1 (stereo partly specified)	7.46	25.1 µM
NNc1nc(N)c2ncn(C3O[C@H](CO)[C@@H](O)[C@H]3O)c2n1 (stereo partly specified)	–	20 µM
Nc1nc(NCCC2=CCCCC2)nc2c1ncn2C1O[C@H](CO)[C@@H](O)[C@H]1O (stereo partly specified)	8.65	22.9 µM

Further lines, results first:

-Log EC50 [1]	EC50 [2]	SMILES
9.33	20.9 µM	CC(C)C/C=N/Nc1nc(N)c2ncn([C@@H]3O[C@H](CO)[C@@H](O)[C@H]3O)c2n1
8.99	25.1 µM	CCCC/C=N/Nc1nc(N)c2ncn(C3O[C@H](CO)[C@@H](O)[C@H]3O)c2n1 (stereo partly specified)
7.88	13.5 µM	CC/C=N/Nc1nc(N)c2ncn(C3O[C@H](CO)[C@@H](O)[C@H]3O)c2n1 (stereo partly specified)
8.24	11 µM	CCC(/C=N/Nc1nc(N)c2ncn(C3O[C@H](CO)[C@@H](O)[C@H]3O)c2n1)CC (stereo partly specified)
7.3	12 µM	CC(C)=NNc1nc(N)c2ncn(C3O[C@H](CO)[C@@H](O)[C@H]3O)c2n1 (stereo partly specified)
8.13	12.6 µM	CC(C)/C=N/Nc1nc(N)c2ncn(C3O[C@H](CO)[C@@H](O)[C@H]3O)c2n1 (stereo partly specified)
–	7.24 µM	Nc1nc(N/N=C/C2CC=CCC2)nc2c1ncn2C1O[C@H](CO)[C@@H](O)[C@H]1O (stereo partly specified)
–	66.1 µM	Nc1nc(N/N=C/CCC2CCCCC2)nc2c1ncn2C1O[C@H](CO)[C@@H](O)[C@H]1O (stereo partly specified)
7.12	3.63 µM	C/C=N/Nc1nc(N)c2ncn(C3O[C@H](CO)[C@@H](O)[C@H]3O)c2n1 (stereo partly specified)
